From patent publication US11053204B2, “Pyrimidinyloxy benzene derivatives as herbicides” (FMC Corporation, priority 2015, dated 2021)

Assays:
Assay in all cases: Test C preemergence, plant response rating
Format in all cases: in vivo
[1] = system: barnyardgrass (Echinochloa crus-galli); conditions: for pest or weed control at 62 g/ha / pest or weed control at 125 g/ha / pest or weed control at 16 g/ha / pest or weed control at 31 g/ha: Echinochloa crus-galli, pre-emergence; for pest or weed control at 62 g/ha / pest or weed control at 125 g/ha / pest or weed control at 16 g/ha / pest or weed control at 31 g/ha / Plant response rating, Barnyardgrass: Preemergence; for Barnyardgrass plant response rating: preemergence
[2] = system: galium (catchweed bedstraw, Galium aparine)
[3] = system: surinam grass (Brachiaria decumbens)
[4] = system: nightshade (eastern black nightshade, Solanum ptycanthum)

Structure (SMILES) | pest or weed control at 62 g/ha ([1]; 62 g ai/ha, scale of 0 to 100) [%] | pest or weed control at 125 g/ha ([1]; 125 g ai/ha, scale of 0 to 100) [%] | pest or weed control at 16 g/ha ([1]; 16 g ai/ha, scale 0 to 100) [%] | pest or weed control at 31 g/ha ([1]; 31 g ai/ha, scale 0 to 100) [%] | Plant response rating, Barnyardgrass ([1]; 62 g ai/ha, scale of 0 to 100) | Plant response rating, Barnyardgrass ([1]; 125 g ai/ha, scale of 0 to 100) | Plant response rating, Barnyardgrass ([1]; 16 g ai/ha, scale 0 to 100) | Plant response rating, Barnyardgrass ([1]; 31 g ai/ha, scale 0 to 100) | Plant response rating, Galium ([2]; 16 g ai/ha, scale 0 to 100) | Plant response rating, Galium ([2]; 31 g ai/ha, scale 0 to 100) | Plant response rating, Galium ([2]; 62 g ai/ha, scale of 0 to 100) | Plant response rating, Galium ([2]; 125 g ai/ha, scale of 0 to 100) | Plant response rating, Surinam Grass ([3]; 31 g ai/ha, scale 0 to 100) | Plant response rating, Surinam Grass ([3]; 62 g ai/ha, scale 0 to 100) | Plant response rating, Surinam Grass ([3]; 125 g ai/ha, scale of 0 to 100) | further results
CC(CC(F)(F)F)OC(=O)c1c(Br)cccc1Oc1ncc(Cl)cn1 (centres unmarked) [Compound 16, 3,3,3-trifluoro-1-methylpropyl 2-bromo-6-[(5-chloro-2-pyrimidinyl)oxy]benzoate] | 30 | 75 | 0 | 15 |  |  |  |  |  |  |  |  |  |  |  | 
O=C(OCCC(F)(F)F)c1c(Br)cccc1Oc1ncc(Br)cn1 [Compound 33] |  |  |  |  | 95 | 100 | 20 | 40 | 0 | 60 | 60 | 95 |  |  |  | 
N#Cc1cccc(Oc2ncc(Cl)cn2)c1C(=O)OCCC(F)(F)F [Compound 30] |  |  |  |  | 10 | 25 | 10 | 15 | 80 | 10 | 60 | 85 |  |  |  | 
CCCC(=O)c1c(Br)cccc1Oc1ncc(Cl)cn1 [Compound 75] |  |  |  |  | 80 | 100 | 5 | 60 | 0 | 0 | 5 | 0 | 30 | 35 | 80 | Plant response rating, Surinam Grass ([3]; 16 g ai/ha, scale 0 to 100): 0; Plant response rating, Nightshade ([4]; 16 g ai/ha, scale 0 to 100): 40; Plant response rating, Nightshade ([4]; 31 g ai/ha, scale 0 to 100): 75; Plant response rating, Nightshade ([4]; 62 g ai/ha, scale 0 to 100): 75; Plant response rating, Nightshade ([4]; 125 g ai/ha, scale of 0 to 100): 80
N#Cc1cccc(Oc2ncc(Cl)cn2)c1CCCC(F)(F)F [Compound 72] |  |  |  |  | 80 | 100 | 25 | 90 | 5 | 75 | 90 | 100 |  |  |  | 
N#Cc1cccc(Oc2ncc(Cl)cn2)c1COCCC(F)(F)F [Compound 80] |  |  |  |  | 70 | 100 | 10 | 30 |  | 5 | 75 | 98 | 50 | 60 | 98 | Plant response rating, Nightshade ([4]; 31 g ai/ha, scale 0 to 100): 70; Plant response rating, Nightshade ([4]; 62 g ai/ha, scale 0 to 100): 85; Plant response rating, Nightshade ([4]; 125 g ai/ha, scale of 0 to 100): 90
O=C(CCCC(F)(F)F)c1c(Oc2ncc(Cl)cn2)cccc1C(F)(F)F [Compound 125] |  |  |  |  |  |  |  |  |  | 5 |  | 80 | 20 | 40 | 65 | Plant response rating, Galium ([2]; 62 g ai/ha, scale 0 to 100): 30
O=C(CCCC(F)(F)F)c1c(Br)cccc1Oc1ncc(Cl)cn1 [Compound 77] |  |  |  |  | 98 | 100 | 20 | 60 | 0 | 0 | 98 | 98 |  |  |  | 
C=CCCOC(=O)c1c(Br)cccc1Oc1ncc(Cl)cn1 [Compound 21, 3-buten-1-yl 2-bromo-6-[(5-chloro-2-pyrimidinyl)oxy]benzoate] | 90 | 98 | 10 | 55 |  |  |  |  |  | 0 | 5 | 100 |  |  |  | 
O=C(CCCC(F)(F)F)c1c(Cl)cccc1Oc1ncc(Cl)cn1 [Compound 143] |  |  |  |  |  |  |  |  |  | 30 |  | 80 | 10 | 35 | 50 | Plant response rating, Galium ([2]; 62 g ai/ha, scale 0 to 100): 80
CCCC(=O)c1c(Oc2ncc(Cl)cn2)cccc1C(F)(F)F [Compound 136] |  |  |  |  |  |  |  |  |  | 0 |  | 90 | 25 | 10 | 100 | Plant response rating, Galium ([2]; 62 g ai/ha, scale 0 to 100): 50
CCCCC(=O)c1c(Oc2ncc(Cl)cn2)cccc1C(F)(F)F [Compound 130] |  |  |  |  |  |  |  |  |  | 50 |  | 90 | 50 | 65 | 80 | Plant response rating, Galium ([2]; 62 g ai/ha, scale 0 to 100): 90
O=C(OCCC(F)(F)F)c1c(Cl)cccc1Oc1ncc(Cl)cn1 [Compound 15, 3,3,3-trifluoropropyl 2-chloro-6-[(5-chloro-2-pyrimidinyl)oxy]benzoate] | 100 | 100 | 10 | 85 |  |  |  |  |  |  |  |  |  |  |  | 
N#Cc1cccc(Oc2ncc(Cl)cn2)c1CCCCC(F)(F)F [Compound 73, 3-[(5-chloro-2-pyrimidinyl)oxy]-2-(5,5,5-trifluoropentyl)benzonitrile] | 100 | 100 | 15 | 80 |  |  |  |  | 5 | 10 | 100 | 100 |  |  |  | 
CCCOC(=O)c1c(Br)cccc1Oc1ncc(Cl)cn1 [Compound 13, propyl 2-bromo-6-[(5-chloro-2-pyrimidinyl)oxy]benzoate] |  |  | 10 | 40 |  |  |  |  |  |  |  |  |  |  |  | Barnyardgrass plant response rating ([1]; 4 g ai/ha, scale 0 to 100): 0; Barnyardgrass plant response rating ([1]; 8 g ai/ha, scale 0 to 100): 0
O=C(OCCC(F)(F)F)c1c(Br)cccc1Oc1ncc(Cl)cn1 [Compound 26, 3,3,3-trifluoropropyl 2-bromo-6-[(5-chloro-2-pyrimidinyl)oxy]benzoate] | 100 | 100 | 40 | 75 |  |  |  |  | 5 | 90 | 95 | 100 |  |  |  | 
O=C(OCCCC(F)(F)F)c1c(Br)cccc1Oc1ncc(Cl)cn1 [Compound 20, 4,4,4-trifluorobutyl 2-bromo-6-[(5-chloro-2-pyrimidinyl)oxy]benzoate] | 30 | 85 | 0 | 5 |  |  |  |  | 10 | 0 | 80 | 95 |  |  |  | 
